The values that follow come from US9629921B2, “Smart pro-drugs of serine protease inhibitors” (Trustees of Tufts College, priority 2002, dated 2017).

The target of one data set is DPP IV (Homo sapiens, UniProt P27487). Nature of the data set: In vitro DPP IV enzyme inhibition assay; inhibitors incubated at pH 2 or pH 8, then added to enzyme assay solution at pH 8.0. The format is biochemical. The protocol:
Inhibitors were incubated overnight in pH 2 or pH 8 solutions and then added directly to an enzyme assay solution at pH 8.0.
It is important to note that the x-axis in FIG. 3 refers to the concentration of the SPI, not the concentration of the released Xaa-boroPro.

Another data set deals with male Sprague-Dawley rats. Nature of the data set: Example 10: clinical signs and mortality after single oral administration in male rats.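 For all read-outs here: test articles given by mouth, formulated in deionized Type I water as vehicle.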 The note with it: for Clinical Observation: one line per animal, wrapped cell 'Redness of ears' continues 'and paws'.
Another data set deals with serum DPP IV (Mus musculus, UniProt P28843). Nature of the data set: In vivo inhibition of serum DPP IV in db/db mice after oral dose. The note with it: Diabetic-control = 100.00.
Another data set has as its system Zucker rats. The experiment in a line: Toxicity (mortality) after oral dose in rats. It is filed as in vivo.
The next data set deals with Diabetic Mice. Nature of the data set: Toxicity (mortality) of Val-boroPro in diabetic mice. The format is in vivo.
Setting [1] is: pH 2, ten minutes, read-out: IC50 Values at Ten Minutes pH 2.
[2] abbreviates: pH 8, ten minutes, read-out: IC50 Values at Ten Minutes pH 8.
Setting [3] is: pH 2, read-out: Tetrapeptide Prodrugs (IC50) pH 2.
The mark [4] stands for this setting: pH 8, read-out: Tetrapeptide Prodrugs (IC50) pH 8.
Setting [5] is: 2.5 mg/kg ALA-PRO boronic dose equivalents.
Setting [6] is: 10.0 mg/kg ALA-PRO boronic dose equivalents.

In general, IC50 refers to the concentration that inhibits the measured activity by half.

Where “and” joins values, the source holds several entries; their conditions need not be identical. Identical values can stand only once. Like-named read-outs stand apart in the source and are kept apart here.

Sequence of serum DPP IV (P28843 37-760 limits assumed): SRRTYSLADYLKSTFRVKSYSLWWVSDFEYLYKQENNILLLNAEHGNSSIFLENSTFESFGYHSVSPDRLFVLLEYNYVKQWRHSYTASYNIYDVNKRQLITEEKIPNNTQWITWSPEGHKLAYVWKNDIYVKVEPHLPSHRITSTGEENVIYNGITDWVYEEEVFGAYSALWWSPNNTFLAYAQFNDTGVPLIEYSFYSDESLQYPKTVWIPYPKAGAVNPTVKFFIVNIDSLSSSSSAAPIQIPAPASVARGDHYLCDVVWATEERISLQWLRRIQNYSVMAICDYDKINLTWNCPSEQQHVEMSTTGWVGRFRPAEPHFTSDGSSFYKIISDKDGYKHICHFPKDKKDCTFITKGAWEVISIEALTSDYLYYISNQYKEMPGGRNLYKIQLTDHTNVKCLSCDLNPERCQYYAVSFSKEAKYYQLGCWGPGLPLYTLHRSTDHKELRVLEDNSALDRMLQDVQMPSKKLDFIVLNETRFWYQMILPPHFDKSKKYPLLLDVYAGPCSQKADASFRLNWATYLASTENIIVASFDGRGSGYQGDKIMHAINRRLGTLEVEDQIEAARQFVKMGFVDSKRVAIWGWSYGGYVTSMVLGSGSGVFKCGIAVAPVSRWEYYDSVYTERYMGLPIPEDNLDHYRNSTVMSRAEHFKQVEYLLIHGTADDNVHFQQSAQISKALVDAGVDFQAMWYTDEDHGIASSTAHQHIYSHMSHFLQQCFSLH
Sequence of DPP IV (P27487 whole entry, species assumed): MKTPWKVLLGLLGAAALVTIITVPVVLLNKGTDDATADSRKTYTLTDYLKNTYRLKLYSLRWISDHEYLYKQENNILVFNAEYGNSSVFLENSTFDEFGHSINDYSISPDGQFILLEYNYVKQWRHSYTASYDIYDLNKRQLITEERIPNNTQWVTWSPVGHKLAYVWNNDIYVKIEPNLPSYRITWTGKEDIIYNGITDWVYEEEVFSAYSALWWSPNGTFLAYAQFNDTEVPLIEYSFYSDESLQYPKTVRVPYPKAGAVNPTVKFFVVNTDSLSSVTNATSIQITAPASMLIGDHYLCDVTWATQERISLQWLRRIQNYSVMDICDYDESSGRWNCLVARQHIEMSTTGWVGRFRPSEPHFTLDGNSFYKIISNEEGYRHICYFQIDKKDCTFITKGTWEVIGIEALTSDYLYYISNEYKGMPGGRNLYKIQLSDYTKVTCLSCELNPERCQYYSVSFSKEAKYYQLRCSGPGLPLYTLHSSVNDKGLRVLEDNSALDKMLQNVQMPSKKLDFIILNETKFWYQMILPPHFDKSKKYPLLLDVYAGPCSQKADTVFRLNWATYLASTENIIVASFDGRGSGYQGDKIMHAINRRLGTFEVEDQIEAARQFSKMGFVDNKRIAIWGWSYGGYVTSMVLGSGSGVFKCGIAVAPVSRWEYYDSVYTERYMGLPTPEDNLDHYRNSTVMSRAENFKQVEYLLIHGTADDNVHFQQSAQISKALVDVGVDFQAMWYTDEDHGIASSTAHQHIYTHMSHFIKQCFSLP

Turning to `CCC(NC(=O)C1CCN1C(=O)C(N)C1CCCCC1)C(=O)N1CCCC1B(O)O` (centres unmarked) [ChgAzeEtgboroPro], the IC50 worked out at 15 nM on DPP IV (setting [1]) and 16 nM at DPP IV (setting [2]).

`CC(NC(=O)C(N)C1CCCCC1)C(=O)N1CCCC1C(=O)N1CCCC1B(O)O` (centres unmarked) [ChgAlaProboroPro]: the results for the IC50 at DPP IV (setting [1]) and at DPP IV (setting [2]) were 2000 nM and 30000 nM, respectively.

`NCC(=O)N1CCCC1C(=O)N1CCCC1C(=O)N1CCCC1B(O)O` (centres unmarked) [GlyProProboroPro]: the IC50 on DPP IV (setting [3]) stood at 9000 nM; at DPP IV (setting [1]), 8600 nM; at DPP IV (setting [2]) it was 20000 nM.

As for `CC(N)C(=O)NC(C)C(=O)NC(C(=O)N1CCCC1B(O)O)C(C)C` (centres unmarked) [AlaAlaValboroPro], the IC50 on DPP IV (setting [1]) amounted to 2000 nM; at DPP IV (setting [2]) it was 25000 nM.

For `CC[C@H](NC(=O)[C@@H]1CSCN1C(=O)[C@@H](N)C1CCCCC1)C(=O)N1CCC[C@H]1B(O)O` [ChgThz4EtgboroPro], the IC50 amounted to 13 nM on DPP IV (setting [1]) and 16 nM at DPP IV (setting [2]).

For the compound `CC(NC(=O)C1CCCN1C(=O)C(N)Cc1ccc(O)cc1)C(=O)N1CCCC1B(O)O` (centres unmarked) [TyrProAlaboroPro, Tyrosine-Proline-Alanine-Proline Boronic Acid], the IC50 at DPP IV (setting [1]) is 15 nM; at DPP IV (setting [2]) it was 17 nM.

Turning to `NC(Cc1ccc(O)cc1)C(=O)N1CCCC1C(=O)NC(Cc1ccccc1)C(=O)N1CCCC1B(O)O` (centres unmarked) [TyrProPheboroPro], the IC50 against DPP IV (IC50 Values at Ten Minutes pH 2, pH 2, ten minutes) worked out at 50 nM; on DPP IV (IC50 Values at Ten Minutes pH 8, pH 8, ten minutes), 60 nM.

Consider `CC(N)C(=O)N1CCCC1C(=O)N1CCCC1C(=O)N1CCCC1B(O)O` (centres unmarked) [AlaProProboroPro], for which the IC50 on DPP IV (setting [1]) is 8300 nM.

Turning to ChgPipEtgboroPro, the values for the IC50 on DPP IV (setting [1]) and at DPP IV (setting [2]) were 19 nM and 14 nM, respectively.

Turning to `O=C(C1CCCN1)N1CCCC1B(O)O` (centres unmarked) [Pro-boroPro, reference compound], at DPP IV (pre-incubated at low pH vs high pH (FIG. 3, FIG. 64, Table 1)), the “pH dependence of DPP IV inhibition” value is reported as “more effective as inhibitors of DPP IV when pre-incubated at low pH than at high pH”.

Turning to `CCC(NC(=O)C1CCCN1C(=O)C(N)C1CCCCC1)C(=O)N1CCCC1B(O)O` (centres unmarked) [ChgProEtgboroPro], the IC50 at DPP IV (setting [1]) is 12 nM; on DPP IV (setting [2]) it was 14 nM.

On to `CC(NC(=O)C(NC(=O)C1CCCN1C(=O)C(N)C1CCCCC1)C(C)(C)C)B(O)O` (centres unmarked) [ChgProtBugboroAla], for which the IC50 was found to be 6800 nM at DPP IV (setting [1]) and 8400 nM on DPP IV (setting [2]).

With `CC(N)C(=O)NC(C)C(=O)N1CCCC1C(=O)N1CCCC1B(O)O` (centres unmarked) [AlaAlaProboroPro], at DPP IV (setting [1]), the IC50 came to 3000 nM.

For the compound `O=C(C1CCCN1C(=O)C1CCCN1C(=O)C1CCCN1)N1CCCC1B(O)O` (centres unmarked) [ProProProboroPro], the IC50 at DPP IV (setting [3]) and on DPP IV (setting [1]) was 10000 nM throughout.

On to `CC(NC(=O)C(N)C1CCCCC1)C(=O)NC(C(=O)N1CCCC1B(O)O)C(C)C` (centres unmarked) [ChgAlaValboroPro], for which the IC50 at DPP IV (setting [3]) worked out at 190 nM; on DPP IV (setting [1]), 190 nM; on DPP IV (setting [4]), 360 nM; at DPP IV (setting [2]) it was 360 nM.

`CC(NC(=O)C(C)(C)N)C(=O)NC(C(=O)N1CCCC1B(O)O)C(C)C` (centres unmarked) [AibAlaValboroPro]: the IC50 at DPP IV (setting [1]) was found to be 2000 nM.

Consider `NC(C(=O)N1CCCC1C(=O)NC(C(=O)N1CCCC1B(O)O)C1CCCCC1)C1CCCCC1` (centres unmarked) [ChgProChgboroPro], for which the IC50 at DPP IV (setting [1]) and on DPP IV (setting [2]) was 14 nM throughout.

With ChgDhpEtgboroPro, the IC50 at DPP IV (setting [1]) stood at 15 nM; on DPP IV (setting [2]) it was 17 nM.

With `CNC(Cc1ccccc1)C(=O)N1CCCC1C(=O)NC(C)C(=O)N1CCCC1B(O)O` (centres unmarked) [N—Me-PheProAlaboroPro, N-Me-Phe-PRO-ALA-PRO Boronic Acid], the “Clinical Observation” value in the data set with male Sprague-Dawley rats (0.5 mg/kg ALA-PRO boronic dose equivalents) is “None”; in the data set on male Sprague-Dawley rats (setting [5]), “Redness of ears and None (2×)”; with male Sprague-Dawley rats (setting [6]) it was “None (2×) and Redness of ears”. The “Approximate Onset of Observation (Time post-dose)” value is approximately 2 h in the data set with male Sprague-Dawley rats (setting [5]) and approximately 4 h in the data set with male Sprague-Dawley rats (setting [6]). Further, the IC50 on DPP IV (setting [1]) came out at 2000 nM; on DPP IV (setting [2]), 2700 nM.

In the case of `CC(C)(C)[C@H](NC(=O)[C@@H]1CCCN1C(=O)[C@@H](N)C1CCCCC1)C(=O)N1CCC[C@H]1B(O)O` [ChgProBugboroPro], the IC50 was 1500 nM at DPP IV (setting [1]) and 8000 nM on DPP IV (setting [2]).

On to `CC(C)C(NC(=O)C1CCCN1C(=O)CN)C(=O)N1CCCC1B(O)O` (centres unmarked) [GlyProValboroPro], for which the IC50 on DPP IV (setting [3]) is 17 nM; at DPP IV (setting [1]) it was 17 nM; on DPP IV (setting [4]) it was 46 nM; on DPP IV (setting [2]) it was 46 nM.

As for `CC(C)[C@H](N)C(=O)N1CCC[C@H]1B(O)O` [Val-boroPro], the “In vivo inhibition of serum DPP IV” value on serum DPP IV (0.0025 mg/kg, 1 hr Post Rx-Glucose) was found to be 94.52; at serum DPP IV (0.0025 mg/kg, 4 hrs Post Rx-Glucose), 93.30; at serum DPP IV (0.01 mg/kg, 1 hr Post Rx-Glucose), 59.36; on serum DPP IV (0.01 mg/kg, 4 hrs Post Rx-Glucose) it was 58.85; on serum DPP IV (0.025 mg/kg, 1 hr Post Rx-Glucose), 47.49; on serum DPP IV (0.025 mg/kg, 4 hrs Post Rx-Glucose) it was 39.23. The MORTALITY in the data set with Zucker rats (0.035 mg/kg Oral, Zucker Lean, 4 animals dosed, project 002969) came out at 1; in the data set on Zucker rats (0.035 mg/kg Oral, Zucker Obese, 4 animals dosed, project 002969), 4; with Zucker rats (0.35 mg/kg Oral, Zucker Lean, 4 animals dosed, project 002969), 4; in the data set on Zucker rats (0.35 mg/kg Oral, Zucker Obese, 4 animals dosed, project 002969), 4; with Zucker rats (1.75 mg/kg Oral, Zucker Lean, 4 animals dosed, project 002969) it was 2; in the data set with Zucker rats (1.75 mg/kg Oral, Zucker Obese, 4 animals dosed, project 002969) it was 2. In addition, the MORTALITY in the data set on Zucker rats (5 mg/kg Oral, Zucker Lean, 3 animals dosed, project 002898) was 3; in the data set with Zucker rats (5 mg/kg Oral, Zucker Obese, 4 animals dosed, project 002898), 4; in the data set on Diabetic Mice (0.035 mg/kg, Diabetic Mice (starved), 8 animals dosed, project 011050) it was 0; with Diabetic Mice (0.035 mg/kg, Diabetic Mice, 7 animals dosed, project 010757), 0; in the data set with Diabetic Mice (0.035 mg/kg, Diabetic Mice, 8 animals dosed, project 011050 group 3) it was 0; in the data set on Diabetic Mice (0.35 mg/kg, Diabetic Mice, 7 animals dosed, project 010757), 0. This compound gave an MORTALITY with Diabetic Mice (3.5 mg/kg, Diabetic Mice, 7 animals dosed, project 010757) of 0. Also, the “Mortality (rats killed)” value with Zucker rats (Zucker rats, dose of 0.035 mg/kg) is on record as “four out of four”. Moreover, the Toxicity to rats result with Zucker rats (rats) was “quite toxic to rats”. Also, in the data set with Diabetic Mice (3.5 mg/kg), the “Toxic effect in mice” value was “no noticeable toxic effect”. In the data set with Diabetic Mice (mice), the Toxicity to mice entry is given as “apparently not at all”.

In the case of `CCC(NC(=O)C(C)NC(=O)C(N)C1CCCCC1)C(=O)NC(C)B(O)O` (centres unmarked) [ChgAlaEtgboroAla], the IC50 came to 1300 nM on DPP IV (setting [1]) and 2500 nM at DPP IV (setting [2]).

As for `CC(NC(=O)C1CCCN1C(=O)C(N)C(C)(C)C)C(=O)N1CCCC1B(O)O` (centres unmarked) [tBugProAlaboroPro], the IC50 on DPP IV (setting [1]) came to 14 nM; on DPP IV (setting [2]), 18 nM.

For `CC(NC(=O)C1CCCN1C(=O)C(N)Cc1ccccc1)C(=O)N1CCCC1B(O)O` (centres unmarked) [PheProAlaboroPro, Phenylalanine-Proline-Alanine-Proline Boronic Acid], the IC50 at DPP IV (setting [1]) amounted to 6 nM; at DPP IV (setting [2]) it was 8 nM.

For the compound `CC(NC(=O)C(NC(=O)C1CCCN1C(=O)C(N)C1CCCCC1)C1CCCCC1)B(O)O` (centres unmarked) [ChgProChgboroAla], the IC50 at DPP IV (setting [3]) came to 180 nM; on DPP IV (setting [1]) it was 180 nM; on DPP IV (setting [4]) it was 170 nM; on DPP IV (setting [2]), 170 nM.

Regarding `CCC(NC(=O)C1CC(O)CN1C(=O)C(N)C1CCCCC1)C(=O)N1CCCC1B(O)O` (centres unmarked) [ChgHypEtgboroPro], the IC50 on DPP IV (setting [1]) came to 17 nM; at DPP IV (setting [2]) it was 25 nM.

With `CCC(NC(=O)C(C)NC(=O)C(N)C1CCCCC1)C(=O)N1CCCC1B(O)O` (centres unmarked) [ChgAlaEtgboroPro], the results for the IC50 at DPP IV (setting [1]) and on DPP IV (setting [2]) were 600 nM and 802 nM, respectively.

Regarding `CC(N)C(=O)N1CCCC1C(=O)NC(C(=O)N1CCCC1B(O)O)C(C)C` (centres unmarked) [AlaProValboroPro], the IC50 at DPP IV (setting [3]) stood at 20 nM; at DPP IV (setting [1]), 20 nM; on DPP IV (setting [4]) it was 21 nM; at DPP IV (setting [2]), 21 nM.
